Experimental data as given in publication PMC12197210, “mPEG-PCL Nanoparticles to Improve Oral Bioavailability of Acalabrutinib: Effect of Polymer Lipophilicity and Hydrophilicity on Physicochemical Properties and In Vivo Performance in Rats” (Pharmaceutics, 2025).
In brackets after ≈: the same amount, converted by molar mass. Like-named read-outs stand apart in the source and are kept apart here.

What was measured:
[1] = In vitro dissolution/drug release, USP Type II apparatus, membrane-less method; format: physicochemical
Experimental: A membrane-less method using a USP Type II dissolution apparatus (Manual operating model with 8 stations, Electrolab (India) Pvt. Ltd., Mumbai, India) was employed to evaluate the dissolution and drug release behavior of both bulk ACP and freeze-dried ACP-PLHNs (both types, equivalent to 100 mg free base) under physiological pH conditions. The gastrointestinal pH was simulated with three different buffer solutions: a 0.1 N HCl buffer (pH 1.2 ± 0.02, volume = 250 mL) representing the fasted stomach; an acetate buffer (pH 4.5 ± 0.02, volume = 250 mL) representing the fed stomach; and a phosphate buffer solution (PBS, pH 6.8 ± 0.02, volume = 900 mL) representing the intestinal environment. To simulate blood/plasma conditions, 500 mL of PBS (pH 7.2 ± 0.02) was used. To maintain sink conditions, 0.5% w/v sodium dodecyl sulfate (SDS) was added to media with pH ≥ 4.5, and the volume of medium was kept at 3× the volume required to maintain the saturation solubility of ACP. The formulations were dispersed in the dissolution media, which was continuously stirred at 75 rpm and maintained at 37 ± 2 °C. Samples (1000 μL) were withdrawn at specific time intervals and replaced with an equal volume of fresh media (pre-heated to 37 ± 2 °C). The samples were then centrifuged at 15,373× g for 5 min, and the supernatant was collected, diluted with the mobile phase (methanol and a 10 mM ammonium acetate buffer, pH 3.5, in a 52:48 v/v ratio), and analyzed using the HPLC-UV method outlined in Section 2.3.3. The dissolution data were fitted to different mathematical models to determine the drug release kinetics. The best-fitting model was identified based on the regression coefficient.

[2] = cited from earlier work
[3] = design: method as in earlier work; settings: cited from earlier work
[4] = system: P-glycoprotein (P-gp) efflux transporter; design: method as in earlier work; settings: cited from earlier work
CYP3A enzyme system = system: CYP3A enzyme system; design: method as in earlier work; settings: cited from earlier work

time to complete dissolution ([1]; pH 1.2, sink conditions): ≤ 30 min
time to complete dissolution ([1]; pH 4.5, sink conditions): ≤ 30 min
time of complete (100%) release/dissolution ([1]; pH 6.8, sink conditions): ≤ 2 h
time of complete (100%) release/dissolution ([1]; pH 7.2, sink conditions): ≤ 4 h
SMILES: CC#CC(=O)N1CCC[C@H]1c1nc(-c2ccc(C(=O)Nc3ccccn3)cc2)c2c(N)nccn12 [ACP, Acalabrutinib]
aqueous solubility ([2]; pH 1): 29200 µg/mL (≈ 62700 µM)
aqueous solubility ([2]; pH 4.5): 159 µg/mL (≈ 342 µM)
aqueous solubility ([2]; pH 6.8): 52.3 µg/mL (≈ 112 µM)
solubility ([2]; pH values above 6): practically insoluble
oral bioavailability [3]: 25 ± 11%
P-gp efflux transporter substrate status [4]: substrate
metabolism by CYP3A (CYP3A enzyme system): metabolized by the CYP3A enzyme system
